Peptide text beside a SMILES is read from it. * marks the point of attachment. Cbz = O=C(OCc1ccccc1)*
Tests used:
ATP7B H1069Q [1] = assay: Morphological assay of ATP7B H1069Q exit from ER to Golgi in HeLa cells (fluorescence microscopy); assay type: cell-based, human; conditions: HeLa cells expressing ATP7B H1069Q-GFP; 24 h
Procedure: (§1) Cells were transfected with ATP7B-WT-GFP or ATP7B-H1069Q-GFP, incubated overnight with 200 μM BCS and/or drugs. Fixed cells were further labeled for TGN46 to mark and visualize the Golgi area under a confocal microscope. Under low copper conditions ATP7B-WT traffics to the Golgi from the ER, while ATP7B-H1069Q is retained within the ER. If the drug treatments induce the rescue of trafficking from the ER to the Golgi, the ATP7B-H1069Q-GFP fluorescence in the Golgi area increases. This is measured by quantifying (in 10 different microscopy fields in 100 cells) the increased in fluorescence of ATP7BWT-GFP or ATP7BH1069Q-GFP in the Golgi area (marked by TGN46) and normalizing this value to total cell fluorescence
CFBE or HeLa cells (in case of ATP7B) were transfected with constructs encoding the indicated mutant proteins and treated with JNKi II for 48 h.

F508del-CFTR [2] = assay: F508del-CFTR proteostasis by western blotting (ER band B / Golgi-processed band C) in CFBE cells; assay type: cell-based, human; conditions: for levels of band B and band C of F508del-CFTR: concentration series; for decrease in levels of F508del-CFTR: rapid, abolished by MLK3 downregulation
Procedure: Cells were washed three times in ice-cold Dulbecco's phosphate-buffered saline, and lysed in RIPA buffer (150 mM NaCl, 1% Triton X-100, 0.5% deoxycholic acid, 0.1% SDS, 20 mM Tris-HCl, pH 7.4), supplemented with protease inhibitor cocktail and phosphatase inhibitors. The lysates were clarified by centrifugation at 15000×g for 15 min, and the supernatants were resolved by SDS-PAGE. BCA Protein Assay kit (Pierce) was used to quantitate protein levels before loading. The western blots were decorated with appropriate antibodies and developed using ECL. The blots were then exposed to x-ray films and exposure time was varied to obtain optimal signal. The x-ray films were then scanned and the bands were quantitated using ImageJ gel-analysis tool. The protein concentration and the exposures used for quantitation of the blots were optimized to be in a linear range of detection.
Inventors then turned to experimental validation of the role of the CORE genes in the regulation of F508del-CFTR proteostasis. Experiments were carried out using a characterised biochemical assay that detects both the amount of core-glycosylated CFTR trapped in the ER (band B with Western blotting) and the amount of CFTR fully glycosylated in the Golgi (most of which presumably resides at the PM; band C with Western blotting).

ATP7BH1069Q [3] = assay: Immunofluorescence assay for correction of ATP7B: cells with ATP7BH1069Q signal in the ER, HeLa cells; assay type: cell-based, human; conditions: 24 h, SB202190 5 μM, VX-745 1 μM, SP600125 2 μM, Oxozeaenol 5 μM, 100 μM CuSO4 2 h
Procedure: (A) HeLa cells were infected with Ad-ATP7BWT-GFP (Chesi et al., 2016) or Ad-ATP7BH1069Q-GFP, incubated overnight with 200 μM BCS, and incubated for an additional 2 h with 100 μM CuSO4. In response to Cu, ATP7BWT traffics from the Golgi to PM and vesicle, while ATP7BH1069Q are retained within the ER under high Cu conditions. Addition of p38 inhibitor SB202190 (5 μM), VX-745(1 μM), JNK inhibitor SP600125 (2 μM) and Oxozeaenol (5 μM) (as indicated in corresponding panels) to the cells 24 h corrects ATP7BH1069Q from the ER to PM and vesicles (arrows) (B) Cells were treated as in panel A. The percentage of the cells (average±SD, n=50 fields) with an ATP7B signal in the ER, were calculated.
Cells were fixed with 4% paraformaldehyde in 0.2 M HEPES for 10 mins, permeabilized, labeled with primary and secondary antibodies, and examined with a ZEISS LSM 700 confocal microscope equipped with a 63×1.4 numerical aperture oil objective. The cells were scored based on the disappearance of ATP7B from the ER.

ATP7B H1069Q [4] = assay: Traffic-based screening of ATP7B H1069Q-GFP rescue in HEPG2 cells; assay type: cell-based, human; conditions: HEPG2 cells expressing ATP7B H1069Q-GFP; 24 h
Procedure: (§2) Transiently ATP7B H1069Q-GFP expressing HeLa cells (A), HEPG2 cells and (C) human primary hepatocytes (E) treated with the inhibitors for 24 hours, cells are processed for immunofluorescence assay to measure the arrival of the ATP7B wt and H1069Q mutant from the ER to Golgi compartment. A, C, E) Normalized Golgi fluorescence of ATP7B is measured and plotted (n >50 cells). B, D, F) EC50 and recue effect (%) compared to the level ATP7B WT Golgi fluorescence calculated from (A), (C) and (E) respectively. […] All the inhibitor drugs except SB202190 are in clinical trial for treatment of various other diseases.
as §1, with “cell fluorescence […]” for “cell fluorescence”

ATP7B H1069Q [5] = assay: Traffic-based screening of ATP7B H1069Q-GFP rescue in human primary hepatocytes; assay type: cell-based; conditions: human primary hepatocytes expressing ATP7B H1069Q-GFP; 24 h
Procedure: as §2
as §1, with “cell fluorescence […]” for “cell fluorescence”

ATP7BH1069Q [6] = assay: Copper estimation in HepG2 cells overexpressing ATP7BH1069Q; assay type: cell-based, human; conditions: 1 μM, 24 hours, 200 μM copper sulphate for the last 2 hours
Procedure: FIG. 14: The VX-745 and BIRB-796 correctors reduce Copper levels in cells expressing ATP7BH1069Q mutant. HepG2 cells overexpressing indicated ATP7B constructs were incubated with 1 μM each of VX-745, BIRB-796 for 24 hours, for the last 2 hours of incubation with the inhibitors 200 μM copper sulphate is added to the cells with or without 100 μM BCS (copper chelator) as indicated. Cells were incubated with HBSS for 3 hours before lysed and used for copper estimation. Fold change in copper normalized to control is plotted (n=4). Both VX-745 and BIRB-796 reduced Copper levels in ATP7BH1069Q expressing cells (BCS is used in the assay as a control for the sensitivity of the assay).
Cells are lysed in RIPA buffer (150 mM NaCl, 1% Triton X-100, 0.5% deoxycholic acid, 0.1% SDS, 20 mM Tris-HCl, pH 7.4). 500 μg of total protein lysate in 100 μl is taken for copper estimation using Copper assay kit (MAK127 sigma-aldrich) according to the manufacturer's protocol.
ATP7B protein functions in the excretion of copper out of cells and tissue. As ATP7B H1069Q trafficking to the plasma membrane is impaired, the cells cannot excrete the copper, which leads to higher level of intracellular copper. If the corrector drugs promote the correct localization of the mutant, then the copper should be excreted, leading to lower intracellular levels.

JNK = assay: phospho-c-jun levels by western blotting as a measure of JNK inhibition in CFBE cells; assay type: cell-based, human; conditions: 24 h, oxozeaenol 5 μM
Procedure: A. CFBE cells were treated with indicated JNK inhibitors for 24 h and processed for western blotting. The levels of phospho-c-jun as a measure of JNK inhibition was monitored. […] B. CFBE cells were treated with TAK1 or MLK3 siRNA as indicated and changes in F508del-CFTR proteostasis were monitored by western blotting.
C. CFBE cells were treated with 5 μM oxozeaenol for 48 h, or with MLK3 siRNA, or with both, and the correction of the F508del-CFTR folding/trafficking defect was monitored by changes in the levels of band C. There was no additive effect observed with the combination of MLK3 downregulation and oxozeaenol treatment. The quantitated band C levels are expressed as mean±SD (n>3). D. CFBE cells were treated with 5 μM oxozeaenol for 24 h, and the activity of the JNK pathway was measured by western blotting for phospho c-jun levels and F508del-CFTR. […] E. CFBE cells were treated with flunarizine (at concentrations 6.25-50 μM) targeting the CAMKK2 pathway for 48 h and the effect on F508del-CFTR proteostasis measured by western blotting. Treatment with flunarizine increased the levels of band C of F508del-CFTR. […] F. CFBE cells transiently transfected with the P-glycoprotein mutant (P-gp DY490), the NCC mutant (R948X), or the hERG mutant (G601S) were treated with JNKi II for 24 h, and the effect of the drug on their proteostasis monitored by western blotting. […]

F508del-CFTR [7] = conditions: primary human bronchial epithelial cells (Trzcinska-Daneluti et al. 2012); cited from earlier work
proteasome = assay: Proteasome ZsProsensor-1 fluorescence in CFBE cells; assay type: cell-based, human; conditions: MG132 20 μg/ml for 3 h, positive control
Procedure: CFBE cells treated with MLK3 or JNK2 siRNA for 72 h were transfected with Proteasome ZsProsensor-1 for the final 24 h, and the levels Proteasome ZsProsensor-1 monitored by fluorescence microscopy. Treatment with MG132 (20 μg/ml for 3 h), a proteasomal inhibitor, was used as a positive control.

Molecule: C=C(c1ccc(C(=O)O)cc1)c1cc2c(cc1C)C(C)(C)CCC2(C)C [Bexarotene]
- rescue of ATP7B H1069Q localization (ER exit to the Golgi compartment) (ATP7B H1069Q [1]): potently rescue
- levels of band B and band C of F508del-CFTR (F508del-CFTR [2]; 48 h): robust increases

Molecule: TNF-α
- decrease in levels of F508del-CFTR (F508del-CFTR [2]): 50%

Molecule: Oc1ccc(-c2nc(-c3ccncc3)c(-c3ccc(F)cc3)[nH]2)cc1 [SB202190]
- percentage of the cells exhibiting ATP7BH1069Q in the ER (ATP7BH1069Q [3]): reduced

Molecule: O=[N+]([O-])c1cnc(Sc2nc3ccccc3s2)s1 [JNKi XI]
- levels of band B and band C of F508del-CFTR (F508del-CFTR [2]; 48 h): robust increases

Molecule: CC(=O)Nc1ccc(C(=O)NC(C)(C)C)cc1 [CPI-1189]
- rescue of ATP7B H1069Q localization (ER exit to the Golgi compartment) (ATP7B H1069Q [1]): potently rescue

Molecule: Cc1ccc(-n2nc(C(C)(C)C)cc2NC(=O)Nc2ccc(OCCN3CCOCC3)c3ccccc23)cc1 [BIRB-796]
- rescue of ATP7B H1069Q localization (ER exit to the Golgi compartment) (ATP7B H1069Q [1]): potently rescue
- rescue of ATP7B H1069Q (ER to Golgi) (ATP7B H1069Q [4]): rescue H1069Q potently
- rescue of ATP7B H1069Q (ER to Golgi) (ATP7B H1069Q [5]): rescue H1069Q potently
- Copper levels in ATP7BH1069Q expressing cells (ATP7BH1069Q [6]): reduced

Molecule: Cc1ccc(Nc2nccc(N(C)c3ccc4c(C)n(C)nc4c3)n2)cc1S(N)(=O)=O [Pazopanib]
- levels of band B and band C of F508del-CFTR (F508del-CFTR [2]; 48 h): robust increases

Molecule: COc1ccc(CCN(C)CCCC(C#N)(c2ccc(OC)c(OC)c2)C(C)C)cc1OC (stereo not drawn) [verapamil]
- correction of F508del-CFTR (levels of band C) (F508del-CFTR [2]; 48 h): did not show any effect

Molecule: C=C(C)[C@@H]1CCC(C)=C[C@H]1c1c(O)cc(CCCCC)cc1O [Cannabidiol]
- rescue of ATP7B H1069Q localization (ER exit to the Golgi compartment) (ATP7B H1069Q [1]): potently rescue

Molecule: COc1cc(O)c2c(c1)/C=C/C[C@H](O)[C@H](O)C(=O)/C=C\C[C@H](C)OC2=O [Oxozeaenol, (5Z)-7-oxozeaenol]
- levels of band B and band C of F508del-CFTR (F508del-CFTR [2]; 48 h): markedly increased
- phospho-c-jun levels (JNK): reduced
- correction of the F508del-CFTR proteostasis defect (F508del-CFTR [7]): effective
- percentage of the cells exhibiting ATP7BH1069Q in the ER (ATP7BH1069Q [3]): reduced

Molecule: O=c1ncn2nc(Sc3ccc(F)cc3F)ccc2c1-c1c(Cl)cccc1Cl [VX-745]
- rescue of ATP7B H1069Q (ER to Golgi) (ATP7B H1069Q [4]): rescue H1069Q potently
- percentage of the cells exhibiting ATP7BH1069Q in the ER (ATP7BH1069Q [3]): reduced
- rescue of ATP7B H1069Q (ER to Golgi) (ATP7B H1069Q [5]): rescue H1069Q potently
- Copper levels in ATP7BH1069Q expressing cells (ATP7BH1069Q [6]): reduced

Molecule: COC(=O)[C@@]1(O)C[C@H]2O[C@]1(C)n1c3ccccc3c3c4c(c5c6ccccc6n2c5c31)C(=O)NC4 [K252a]
- correction of F508del-CFTR (levels of band C) (F508del-CFTR [2]; 48 h): no clear effects

Molecule: CC(O)C(=O)O.CN1CCN(c2ccc3nc(-c4c(N)c5c(F)cccc5[nH]c4=O)[nH]c3c2)CC1 [Dovitinib lactate]
- levels of band B and band C of F508del-CFTR (F508del-CFTR [2]; 48 h): robust increases

Molecule: O=C(O)c1ccc2c3c1cccc3c(=O)n1c3ccccc3nc21 [STO-609]
- correction of F508del-CFTR (levels of band C) (F508del-CFTR [2]; 48 h): did not show any effect

Molecule: TGF-β
- decrease in levels of F508del-CFTR (F508del-CFTR [2]): 50%

Molecule: CC(C)C[C@@H](C=O)NC(=O)[C@H](CC(C)C)NC(=O)[C@H](CC(C)C)NC(=O)OCc1ccccc1 [MG132] (Cbz-Leu-Leu-Leu-aldehyde)
- fluorescence levels of ZsProsensor-1 compared to untreated cells (proteasome): increases

Molecule: Cc1cc(Nc2cc(N3CCN(C)CC3)nc(/C=C/c3ccccc3)n2)n[nH]1 [ENMD-2076]
- rescue of ATP7B H1069Q localization (ER exit to the Golgi compartment) (ATP7B H1069Q [1]): potently rescue

Molecule: N#Cc1c(NC(=O)c2cccc3ccccc23)sc2c1CCCC2 [JNKi IX]
- levels of band B and band C of F508del-CFTR (F508del-CFTR [2]; 48 h): robust increases

Molecule: Fc1ccc(C(c2ccc(F)cc2)N2CCN(C/C=C/c3ccccc3)CC2)cc1 [Flunarizine]
- correction of F508del-CFTR (levels of band C) (F508del-CFTR [2]; 48 h): increased

Molecule: O=C1c2c(O)ccc(O)c2C(=O)c2c(NCCNCCO)ccc(NCCNCCO)c21 [mitoxantrone]
- levels of band B and band C of F508del-CFTR (F508del-CFTR [2]; 48 h): potently increase

Molecule: OO [H2O2]
- F508del-CFTR levels (F508del-CFTR [2]; H2O2 at non-toxic concentrations, within a few minutes): marked drop

Molecule: Cc1ccc(NC(=O)C2(c3ccc4c(c3)OC(F)(F)O4)CC2)nc1-c1cccc(C(=O)O)c1 [VX-809]
- level of ER-localised band B of F508del-CFTR (F508del-CFTR [2]; 48 h): limited increase
- increase of band C levels over control (F508del-CFTR [2]; VX-809 as reference for correction): 4-5 fold

Reference: patent US20200022957A1, “KINASE AND UBIQUITIN LIGASE INHIBITORS AND USES THEREOF” (ALDA S.R.L., priority 2015, published 2020)
